Results as given in US20250147039A1, “Compounds for complexation of rare earth elements and/or s-, p-, d- block metals, their coordination compounds, peptide conjugates, method of their preparation and use thereof” (USTAV ORGANICKE CHEMIE A BIOCHEMIE AV CR V.V.I., priority 2021, published 2025).

How the values were obtained:
[1] = pH dependent formation of 1,5- and 1,4-cz-Lig isomers from Lig (pH dependent click-zip) (Chart 13); format: physicochemical
[2] = Alkali metal dependent formation of 1,5-cz-Lig and 1,4-cz-Lig isomers from Lig at pH 10.2 (Chart 14); format: physicochemical; conditions: Borate/(M^I)2CO3 buffer pH 10.2
[3] = A: 1 hour at 80° C., 0.1M HClO4 (pH ~1)
[4] = A: 1 hour at 80° C., 1.0M HClO4 (pH ~0)
[5] = A: 1 hour at 80° C., pH 2.2, 50 mM aq. buffer
[6] = A: 1 hour at 80° C., pH 3.0, 50 mM aq. buffer
[7] = A: 1 hour at 80° C., pH 3.8, 50 mM aq. buffer
[8] = A: 1 hour at 80° C., pH 4.6, 50 mM aq. buffer
[9] = A: 1 hour at 80° C., pH 5.4, 50 mM aq. buffer
[10] = A: 1 hour at 80° C., pH 6.2, 50 mM aq. buffer
[11] = A: 1 hour at 80° C., pH 7.0, 50 mM aq. buffer
[12] = A: 1 hour at 80° C., pH 8.6, 50 mM aq. buffer
[13] = A: 1 hour at 80° C., pH 9.4, 50 mM aq. buffer
[14] = A: 1 hour at 80° C., pH 10.2, 50 mM aq. buffer
[15] = B: 1 day at 80° C., 0.1M HClO4 (pH ~1)
[16] = B: 1 day at 80° C., 1.0M HClO4 (pH ~0)
[17] = B: 1 day at 80° C., pH 2.2, 50 mM aq. buffer
[18] = B: 1 day at 80° C., pH 3.0, 50 mM aq. buffer
[19] = B: 1 day at 80° C., pH 3.8, 50 mM aq. buffer
[20] = B: 1 day at 80° C., pH 4.6, 50 mM aq. buffer
[21] = B: 1 day at 80° C., pH 5.4, 50 mM aq. buffer
[22] = B: 1 day at 80° C., pH 6.2, 50 mM aq. buffer
[23] = B: 1 day at 80° C., pH 7.0, 50 mM aq. buffer
[24] = B: 1 day at 80° C., pH 8.6, 50 mM aq. buffer
[25] = B: 1 day at 80° C., pH 9.4, 50 mM aq. buffer
[26] = B: 1 day at 80° C., pH 10.2, 50 mM aq. buffer
[27] = B: 1 day at 80° C., visible analyte free precipitate

With `C#Cc1cccc(CN2CCN(CC(=O)O)CCN(Cc3cc(-c4ccccc4)cc(CN=[N+]=[N-])n3)CCN(CC(=O)O)CC2)n1` [TD647] the “conversion to 1,4-cz-Lig isomer” value [1, 3] was 3%, the “conversion to 1,5-cz-Lig isomer” value [1, 3] was 44% and the “conversion to 1,4-cz-Lig isomer” value [1, 4] was 2%. For the same compound, the “conversion to 1,5-cz-Lig isomer” value [1, 4] was 9%, the “conversion to 1,4-cz-Lig isomer” value [1, 5] was 2% and the “conversion to 1,5-cz-Lig isomer” value [1, 5] was 17%. For the same compound, the “conversion to 1,4-cz-Lig isomer” value [1, 6] was 1%, the “conversion to 1,5-cz-Lig isomer” value [1, 6] was 6% and the “conversion to 1,4-cz-Lig isomer” value [1, 7] was 1%. The “conversion to 1,5-cz-Lig isomer” value [1, 7] was 1%, the “conversion to 1,4-cz-Lig isomer” value [1, 8] was 1% and the “conversion to 1,5-cz-Lig isomer” value [1, 8] was 1%. For the same compound, the “conversion to 1,4-cz-Lig isomer” value [1, 9] was 1%, the “conversion to 1,5-cz-Lig isomer” value [1, 9] was 1% and the “conversion to 1,4-cz-Lig isomer” value [1, 10] was 1%. For the same compound, the “conversion to 1,5-cz-Lig isomer” value [1, 10] was 1%, the “conversion to 1,4-cz-Lig isomer” value [1, 11] was 2% and the “conversion to 1,5-cz-Lig isomer” value [1, 11] was 1%. For the same compound, the “conversion to 1,4-cz-Lig isomer” value [1, 12] was 3%, the “conversion to 1,5-cz-Lig isomer” value [1, 12] was 2% and the “conversion to 1,4-cz-Lig isomer” value [1, 13] was 3%. The “conversion to 1,5-cz-Lig isomer” value [1, 13] was 8%, the “conversion to 1,4-cz-Lig isomer” value [1, 14] was 2% and the “conversion to 1,5-cz-Lig isomer” value [1, 14] was 17%. The “conversion to 1,4-cz-Lig isomer” value [1, 15] was 5%, the “conversion to 1,5-cz-Lig isomer” value [1, 15] was 91% and the “conversion to 1,4-cz-Lig isomer” value [1, 16] was 8%. The “conversion to 1,5-cz-Lig isomer” value [1, 16] was 72%, the “conversion to 1,4-cz-Lig isomer” value [1, 17] was 6% and the “conversion to 1,5-cz-Lig isomer” value [1, 17] was 88%. The “conversion to 1,4-cz-Lig isomer” value [1, 18] was 6%, the “conversion to 1,5-cz-Lig isomer” value [1, 18] was 69% and the “conversion to 1,4-cz-Lig isomer” value [1, 19] was 6%. For the same compound, the “conversion to 1,5-cz-Lig isomer” value [1, 19] was 22%, the “conversion to 1,4-cz-Lig isomer” value [1, 20] was 5% and the “conversion to 1,5-cz-Lig isomer” value [1, 20] was 13%. For the same compound, the “conversion to 1,4-cz-Lig isomer” value [1, 21] was 6%, the “conversion to 1,5-cz-Lig isomer” value [1, 21] was 12% and the “conversion to 1,4-cz-Lig isomer” value [1, 22] was 12%. For the same compound, the “conversion to 1,5-cz-Lig isomer” value [1, 22] was 11%, the “conversion to 1,4-cz-Lig isomer” value [1, 23] was 23% and the “conversion to 1,5-cz-Lig isomer” value [1, 23] was 19%. For the same compound, the “conversion to 1,4-cz-Lig isomer” value [1, 24] was 32%, the “conversion to 1,5-cz-Lig isomer” value [1, 24] was 26% and the “conversion to 1,4-cz-Lig isomer” value [1, 25] was 17%. The “conversion to 1,5-cz-Lig isomer” value [1, 25] was 60%, the “conversion to 1,4-cz-Lig isomer” value [1, 26] was 5% and the “conversion to 1,5-cz-Lig isomer” value [1, 26] was 80%. For the same compound, the “conversion to 1,4-cz-Lig isomer, Cs^I” value ([2]; A: 1 hour at 80° C.) was 2%, the “conversion to 1,4-cz-Lig isomer, K^I” value ([2]; A: 1 hour at 80° C.) was 2% and the “conversion to 1,4-cz-Lig isomer, Li^I” value ([2]; A: 1 hour at 80° C.) was 0%. The “conversion to 1,4-cz-Lig isomer, Na^I” value ([2]; A: 1 hour at 80° C.) was 1%, the “conversion to 1,4-cz-Lig isomer, Rb^I” value ([2]; A: 1 hour at 80° C.) was 2% and the “conversion to 1,5-cz-Lig isomer, Cs^I” value ([2]; A: 1 hour at 80° C.) was 0%. The “conversion to 1,5-cz-Lig isomer, K^I” value ([2]; A: 1 hour at 80° C.) was 1%, the “conversion to 1,5-cz-Lig isomer, Li^I” value ([2]; A: 1 hour at 80° C.) was 0% and the “conversion to 1,5-cz-Lig isomer, Na^I” value ([2]; A: 1 hour at 80° C.) was 15%. The “conversion to 1,5-cz-Lig isomer, Rb^I” value ([2]; A: 1 hour at 80° C.) was 0%, the “conversion to 1,4-cz-Lig isomer, Cs^I” value ([2]; B: 1 day at 80° C.) was 39% and the “conversion to 1,4-cz-Lig isomer, K^I” value ([2]; B: 1 day at 80° C.) was 40%. The “conversion to 1,4-cz-Lig isomer, Na^I” value ([2]; B: 1 day at 80° C.) was 1%, the “conversion to 1,4-cz-Lig isomer, Rb^I” value ([2]; B: 1 day at 80° C.) was 41% and the “conversion to 1,5-cz-Lig isomer, Cs^I” value ([2]; B: 1 day at 80° C.) was 7%. For the same compound, the “conversion to 1,5-cz-Lig isomer, K^I” value ([2]; B: 1 day at 80° C.) was 10%, the “conversion to 1,5-cz-Lig isomer, Na^I” value ([2]; B: 1 day at 80° C.) was 85% and the “conversion to 1,5-cz-Lig isomer, Rb^I” value ([2]; B: 1 day at 80° C.) was 6%. For the same compound, the “conversion to 1,4-cz-Lig isomer, Li^I” value [2, 27] was 2% and the “conversion to 1,5-cz-Lig isomer, Li^I” value [2, 27] was 9%.
